The source made the active and inactive calls.
Experiments:
[1] = target: Heat shock 70 kDa protein 1A (Homo sapiens, UniProt P0DMV8); test: inhibition of Hsp70 binding activity – biochemical, fluorescence polarization, SAR follow-up (AID 1072)
[2] = target: Heat shock cognate 71 kDa protein (Homo sapiens, UniProt P11142); test: In Vitro Hsc70 Dose Response Fluorescence Polarization Assay. [Related pubchem assays: 1072 ]
[3] = target: T1, RNA-binding protein pos-1 (Caenorhabditis elegans, UniProt G5EF15); test: disruptors of C. elegans POS-1 RNA interaction – biochemical, fluorescence polarization, dose response (AID 1964);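 also: purified POS-1 fused to maltose binding protein made in E. coli; potency of compounds blocking POS-1 binding to fluorescent RNA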
T1 sequence (G5EF15 whole entry): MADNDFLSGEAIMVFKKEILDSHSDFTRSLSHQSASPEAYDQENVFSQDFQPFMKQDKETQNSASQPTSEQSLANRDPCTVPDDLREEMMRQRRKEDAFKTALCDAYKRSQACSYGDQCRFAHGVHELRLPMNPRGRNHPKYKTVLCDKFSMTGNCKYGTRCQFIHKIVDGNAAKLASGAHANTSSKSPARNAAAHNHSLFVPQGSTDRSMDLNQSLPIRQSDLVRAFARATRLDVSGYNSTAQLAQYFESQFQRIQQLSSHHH

[4] = target: T2, Zinc finger protein mex-5 (Caenorhabditis elegans, UniProt Q9XUB2); test: potency of MEX-5 RNA-binding blockers – biochemical, C. elegans, fluorescence polarization, dose response (AID 1960)
T2 sequence (Q9XUB2 whole entry): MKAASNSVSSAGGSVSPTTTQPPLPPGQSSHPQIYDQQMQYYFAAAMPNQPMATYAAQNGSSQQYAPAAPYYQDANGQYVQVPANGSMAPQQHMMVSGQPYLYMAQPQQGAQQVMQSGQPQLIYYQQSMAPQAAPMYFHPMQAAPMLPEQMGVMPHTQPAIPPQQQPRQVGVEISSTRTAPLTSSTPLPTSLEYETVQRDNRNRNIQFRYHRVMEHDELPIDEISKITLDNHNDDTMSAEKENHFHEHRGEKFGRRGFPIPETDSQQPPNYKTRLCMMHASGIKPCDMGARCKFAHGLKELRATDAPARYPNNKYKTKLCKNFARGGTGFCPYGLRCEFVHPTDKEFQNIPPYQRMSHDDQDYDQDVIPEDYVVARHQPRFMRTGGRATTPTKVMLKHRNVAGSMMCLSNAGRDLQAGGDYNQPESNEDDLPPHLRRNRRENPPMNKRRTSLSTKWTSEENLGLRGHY

[5] = target: Glyceraldehyde-3-phosphate dehydrogenase (Homo sapiens, UniProt P04406)
Chain of Glyceraldehyde-3-phosphate dehydrogenase (P04406 whole entry): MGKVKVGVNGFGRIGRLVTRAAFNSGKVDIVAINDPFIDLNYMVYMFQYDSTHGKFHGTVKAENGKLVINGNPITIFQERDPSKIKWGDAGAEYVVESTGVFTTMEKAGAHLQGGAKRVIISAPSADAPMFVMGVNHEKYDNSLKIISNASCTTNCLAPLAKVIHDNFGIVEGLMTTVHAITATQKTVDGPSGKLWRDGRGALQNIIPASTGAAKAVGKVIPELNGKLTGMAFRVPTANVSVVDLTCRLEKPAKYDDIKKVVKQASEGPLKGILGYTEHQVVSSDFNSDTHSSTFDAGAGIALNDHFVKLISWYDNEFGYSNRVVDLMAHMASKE

[6] = loss of viability in HepG2 cells – cell-based, CellTiter-Glo, cherry-picked, cytotoxicity control for Shn3 inhibitor project, dose response (AID 624134); assay type: functional
[7] = reduction of Shn3 3'UTR-driven luciferase in osteoblasts – cell-based, Clone20 osteoblasts, firefly luciferase, cherry-picked, dose response (AID 624132); assay type: functional;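 also: firefly luciferase luminescence from reporter carrying the Shn3 3'UTR in osteoblasts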
[8] = microbe, parasite or virus in culture; assay type: functional; conditions: Mycobacterium tuberculosis
Galanin receptor type 2 = Galanin receptor type 2 (Homo sapiens, UniProt O43603); test: Dose Response cell-based high-throughput screening assay to identify antagonists of galanin receptor 2 (GALR2). [Related pubchem assays: 828, 866 ]; assay type: functional
[9] = NIH3T3 cell viability loss – ATP luminescence, mouse fibroblasts, counter-screen, dose response (AID 2010); assay type: functional, cell-based;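 also: cells exposed to compound for about 90 hours before reading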
[10] = non-specific 3'UTR reporter inhibition in Clone20-Shn3RL – cell-based, Renilla luciferase, cherry-picked, counter-screen for Shn3 inhibitor project, dose response (AID 624133); assay type: functional
[11] = Trypanosoma cruzi growth suppression in host cells – NIH3T3 host cells, beta-gal luminescence, confirmation (AID 2044); assay type: functional, cell-based;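 also: intracellular parasites grown in NIH/3T3 mouse fibroblasts as host cells; luminescent beta-galactosidase reporter signal from transgenic T. cruzi replicating inside host cells; inhibitors lower the luminescence signal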
BJ [12] = test: cells; assay type: functional, cell-based; conditions: Homo sapiens
HeLa = test: Cytotoxicity counterscreen assay for transcriptional activators of heat shock protein 70 (Hsp70). [Related pubchem assays: 1203, 1252 ]; assay type: functional; conditions: Homo sapiens;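 also: cells exposed to compound for 16 hours before readout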
BJ [13] = test: BJ-TERT fibroblast viability loss – cell-based, RAS-independent, luminescence, dose response (AID 1933); assay type: functional; conditions: Homo sapiens
[14] = DRD fibroblast viability loss – cell-based, non-viral oncogenic, luminescence, dose response (AID 1934); assay type: functional; conditions: Homo sapiens
BJ [15] = test: BJ-TERT-LT-ST fibroblast viability loss – cell-based, RAS-independent, luminescence, dose response (AID 1935); assay type: functional; conditions: Homo sapiens;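 also: BJ fibroblasts immortalized with TERT plus LT and ST oncogenes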
[16] = viability of PTEN-deleted HCT116 cells – cell-based, HCT116 PTEN knockout, dose response (AID 1047); assay type: functional;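 also: HCT116 colon tumor cells with PTEN knocked out; cells exposed to compound for 60 hours before readout; potency for loss of cell viability measured by luminescence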
[17] = viability of HCT116 lacking mutant beta-catenin – cell-based, human colon tumor, dose response (AID 1045); assay type: functional;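 also: HCT116 colon tumor cells with beta catenin knocked out; cells exposed to compound for 60 hours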
Streptokinase A = target: T3, Streptokinase A (Streptococcus pyogenes serotype M1, UniProt P10520); test: viability-normalized secreted streptokinase activity reduction – plasminogen activation absorbance, OD405, dose response (AID 1914); assay type: functional, Streptococcus pyogenes M1 GAS;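 also: secreted streptokinase activity via plasminogen activation per viability signal from cell pellet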
T3 sequence (P10520 whole entry): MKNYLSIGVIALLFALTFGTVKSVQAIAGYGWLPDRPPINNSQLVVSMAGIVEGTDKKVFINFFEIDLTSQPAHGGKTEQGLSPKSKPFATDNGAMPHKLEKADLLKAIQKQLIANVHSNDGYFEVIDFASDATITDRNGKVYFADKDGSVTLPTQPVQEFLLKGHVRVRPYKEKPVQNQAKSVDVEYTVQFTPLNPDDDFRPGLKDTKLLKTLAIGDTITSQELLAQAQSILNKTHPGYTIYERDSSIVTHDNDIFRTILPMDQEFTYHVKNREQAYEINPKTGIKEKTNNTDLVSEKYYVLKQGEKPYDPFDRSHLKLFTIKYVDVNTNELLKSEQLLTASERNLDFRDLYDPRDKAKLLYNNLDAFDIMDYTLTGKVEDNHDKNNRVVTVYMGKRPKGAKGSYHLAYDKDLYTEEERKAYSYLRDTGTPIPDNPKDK

[18] = tested on: Streptococcus sp. 'group A'; test: Streptococcus pyogenes SK(-)GAS viability under kanamycin – luminescence, BacTiterGlo, confirmation, counter-screen for streptokinase expression inhibitor project, dose response (AID 1900); assay type: functional, organism-based
INS1 = test: INS-1E survival protection against cytokine death – cell-based, luminescence, retest, dose response (AID 449756); assay type: functional; conditions: Rattus norvegicus;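 also: cell death triggered by IL-1 beta plus TNF-alpha plus IFN-gamma mixture; protective hits raise ATP signal compared with cytokine alone wells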
Streptococcus [19] = test: GAS UMAA2166 growth inhibition – luminescence, BacTiterGlo, counter-screen for streptokinase expression inhibitor project, dose response (AID 1915); assay type: functional, organism-based;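 also: potency for reduction of bacterial viability or growth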
[20] = Luminescence Cell-Based Dose Retest to Confirm Inhibitors of Cancer Stem Cells. [Related pubchem assays (depositor defined):AID2717, AID2721]; assay type: functional; conditions: Homo sapiens
Streptococcus [21] = test: Luminescence Microorganism-Based Dose Response Follow up to Identify Compounds Cytotoxic to Streptococcus. [Related pubchem assays: 1677 (Project Summary), 1915, 1914, 1902 (Retest at Dose), 1900 (Counter Screen), 1662 (Primary HTS)]; assay type: functional, organism-based
[22] = target: T4, Voltage-gated N-type calcium channel alpha-1B subunit/Amyloid beta A4 precursor protein-binding family A member 1 (Homo sapiens, UniProt Q00975+Q02410); assay type: protein assay
T4 sequence (Q00975 whole entry): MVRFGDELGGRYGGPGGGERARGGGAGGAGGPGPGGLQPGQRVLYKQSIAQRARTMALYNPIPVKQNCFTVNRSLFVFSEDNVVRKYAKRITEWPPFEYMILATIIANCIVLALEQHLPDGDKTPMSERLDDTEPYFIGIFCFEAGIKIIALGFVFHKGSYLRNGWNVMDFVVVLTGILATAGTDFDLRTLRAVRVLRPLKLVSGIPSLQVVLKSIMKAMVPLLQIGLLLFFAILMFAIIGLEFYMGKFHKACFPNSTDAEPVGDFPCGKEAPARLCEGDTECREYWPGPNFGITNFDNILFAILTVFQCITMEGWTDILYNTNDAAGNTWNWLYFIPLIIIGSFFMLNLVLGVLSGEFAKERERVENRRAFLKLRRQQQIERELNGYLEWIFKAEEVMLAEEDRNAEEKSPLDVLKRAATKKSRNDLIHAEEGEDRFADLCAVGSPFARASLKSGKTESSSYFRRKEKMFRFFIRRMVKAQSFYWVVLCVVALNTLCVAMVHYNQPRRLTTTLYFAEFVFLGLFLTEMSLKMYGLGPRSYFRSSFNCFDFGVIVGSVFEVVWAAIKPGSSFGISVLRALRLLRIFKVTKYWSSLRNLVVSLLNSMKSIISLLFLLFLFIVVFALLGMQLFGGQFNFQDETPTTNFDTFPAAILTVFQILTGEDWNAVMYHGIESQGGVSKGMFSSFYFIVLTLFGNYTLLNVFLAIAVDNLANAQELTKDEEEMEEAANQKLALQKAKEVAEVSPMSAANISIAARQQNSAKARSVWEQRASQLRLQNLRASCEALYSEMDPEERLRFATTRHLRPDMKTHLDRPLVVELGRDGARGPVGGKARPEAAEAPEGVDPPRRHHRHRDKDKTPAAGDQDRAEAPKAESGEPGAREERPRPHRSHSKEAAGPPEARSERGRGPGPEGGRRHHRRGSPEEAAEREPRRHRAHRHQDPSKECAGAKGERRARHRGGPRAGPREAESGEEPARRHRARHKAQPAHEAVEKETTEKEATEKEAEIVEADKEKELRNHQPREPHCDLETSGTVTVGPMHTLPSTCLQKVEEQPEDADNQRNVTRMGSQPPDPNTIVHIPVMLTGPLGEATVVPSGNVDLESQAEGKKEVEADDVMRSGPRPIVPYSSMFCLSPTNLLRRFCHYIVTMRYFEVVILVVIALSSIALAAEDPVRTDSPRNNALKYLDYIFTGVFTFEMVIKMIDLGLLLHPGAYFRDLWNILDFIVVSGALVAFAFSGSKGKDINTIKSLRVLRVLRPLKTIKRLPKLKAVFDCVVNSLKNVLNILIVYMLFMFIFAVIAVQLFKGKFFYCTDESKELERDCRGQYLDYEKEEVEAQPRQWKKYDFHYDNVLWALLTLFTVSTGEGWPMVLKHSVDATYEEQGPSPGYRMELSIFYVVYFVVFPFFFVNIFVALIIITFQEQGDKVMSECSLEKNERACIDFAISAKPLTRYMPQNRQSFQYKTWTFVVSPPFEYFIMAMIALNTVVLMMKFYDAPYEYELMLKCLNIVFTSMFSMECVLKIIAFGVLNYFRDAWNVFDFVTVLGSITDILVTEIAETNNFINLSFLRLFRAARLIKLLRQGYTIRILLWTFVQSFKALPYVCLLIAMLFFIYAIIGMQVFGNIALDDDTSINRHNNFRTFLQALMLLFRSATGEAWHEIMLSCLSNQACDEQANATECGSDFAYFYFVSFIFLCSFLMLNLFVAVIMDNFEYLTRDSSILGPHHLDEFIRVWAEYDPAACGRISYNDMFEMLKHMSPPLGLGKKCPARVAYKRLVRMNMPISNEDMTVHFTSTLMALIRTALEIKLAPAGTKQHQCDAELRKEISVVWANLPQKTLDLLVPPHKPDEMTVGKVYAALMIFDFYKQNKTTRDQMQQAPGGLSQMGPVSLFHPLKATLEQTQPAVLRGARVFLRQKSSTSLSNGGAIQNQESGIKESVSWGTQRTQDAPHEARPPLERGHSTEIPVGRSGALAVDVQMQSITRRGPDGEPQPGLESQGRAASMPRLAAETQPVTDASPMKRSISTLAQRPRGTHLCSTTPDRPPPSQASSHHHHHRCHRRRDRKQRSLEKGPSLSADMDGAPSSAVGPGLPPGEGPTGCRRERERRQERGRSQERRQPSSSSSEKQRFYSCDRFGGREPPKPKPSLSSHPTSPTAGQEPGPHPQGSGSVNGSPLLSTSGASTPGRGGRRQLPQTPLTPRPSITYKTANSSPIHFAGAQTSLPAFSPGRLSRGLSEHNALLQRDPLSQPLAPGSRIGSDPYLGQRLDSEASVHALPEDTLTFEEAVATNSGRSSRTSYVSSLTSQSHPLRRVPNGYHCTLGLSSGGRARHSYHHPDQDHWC
T4 sequence (Q02410 whole entry): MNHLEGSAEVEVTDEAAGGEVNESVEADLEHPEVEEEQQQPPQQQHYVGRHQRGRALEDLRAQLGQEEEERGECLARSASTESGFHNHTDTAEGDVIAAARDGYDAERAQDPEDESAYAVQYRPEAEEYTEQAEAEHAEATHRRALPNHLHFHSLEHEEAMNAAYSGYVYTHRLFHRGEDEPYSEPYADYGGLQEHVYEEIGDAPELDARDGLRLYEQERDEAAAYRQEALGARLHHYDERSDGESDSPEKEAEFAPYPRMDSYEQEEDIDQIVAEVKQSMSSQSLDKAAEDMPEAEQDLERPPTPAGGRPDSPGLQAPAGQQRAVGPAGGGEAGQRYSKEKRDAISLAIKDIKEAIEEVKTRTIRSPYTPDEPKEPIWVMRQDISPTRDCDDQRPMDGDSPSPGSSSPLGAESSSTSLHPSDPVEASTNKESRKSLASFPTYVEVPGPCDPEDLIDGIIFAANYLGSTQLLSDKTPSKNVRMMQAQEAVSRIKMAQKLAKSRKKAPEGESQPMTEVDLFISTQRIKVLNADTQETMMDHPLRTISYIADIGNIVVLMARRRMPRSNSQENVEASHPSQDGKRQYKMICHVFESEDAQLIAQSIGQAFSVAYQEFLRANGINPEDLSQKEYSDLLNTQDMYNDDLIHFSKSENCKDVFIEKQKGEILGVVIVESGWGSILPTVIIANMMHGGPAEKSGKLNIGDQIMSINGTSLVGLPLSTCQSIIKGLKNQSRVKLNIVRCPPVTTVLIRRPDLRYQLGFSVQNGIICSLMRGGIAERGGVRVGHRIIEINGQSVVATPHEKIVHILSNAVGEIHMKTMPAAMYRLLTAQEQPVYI

[23] = Counterscreen for IDE inhibitors: Luminescence-based cell-based high throughput dose response assay to identify compounds that are cytotoxic to HEK cells. [Related pubchem assays: 434962 (Primary screen (IDE inhibitors in singlicate)), 449730 (Counterscreen (Cytotoxicity in triplicate)), 435028 (Confirmation (IDE inhibitors in triplicate)) …; assay type: functional; conditions: HEK293
Insulin-degrading enzyme = Insulin-degrading enzyme (Homo sapiens, UniProt P14735); test: Dose Response: Fluorescence polarization-based cell-based high throughput dose response assay for inhibitors of insulin-degrading enzyme (IDE). [Related pubchem assays: 434962 (Primary screen (IDE inhibitors in singlicate)), 449730 (Counterscreen (Cytotoxicity in triplicate)), 435028 (Confirmation (IDE inhibitors in triplicate)), 434984 (Summary …; assay type: functional
[24] = target: T4, Voltage-gated N-type calcium channel alpha-1B subunit/Amyloid beta A4 precursor protein-binding family A member 1; assay type: protein assay; remark: listed apart in the source
[25] = target: Potassium voltage-gated channel subfamily KQT member 2 (Rattus norvegicus, UniProt O88943); test: Mode of action assay - current amplitude concentration response for derivatives of ZTZ240, a potentiator of KCNQ2 potassium channels. [Related pubchem assays: 2258 (Summary assay for the KCNQ2 potentiators.), 2239 (Primary HTS assay for KCNQ2 potentiators with 305606 compounds tested, and 1644 are found to be active.)]; assay type: functional
Chain of Potassium voltage-gated channel subfamily KQT member 2 (O88943 whole entry): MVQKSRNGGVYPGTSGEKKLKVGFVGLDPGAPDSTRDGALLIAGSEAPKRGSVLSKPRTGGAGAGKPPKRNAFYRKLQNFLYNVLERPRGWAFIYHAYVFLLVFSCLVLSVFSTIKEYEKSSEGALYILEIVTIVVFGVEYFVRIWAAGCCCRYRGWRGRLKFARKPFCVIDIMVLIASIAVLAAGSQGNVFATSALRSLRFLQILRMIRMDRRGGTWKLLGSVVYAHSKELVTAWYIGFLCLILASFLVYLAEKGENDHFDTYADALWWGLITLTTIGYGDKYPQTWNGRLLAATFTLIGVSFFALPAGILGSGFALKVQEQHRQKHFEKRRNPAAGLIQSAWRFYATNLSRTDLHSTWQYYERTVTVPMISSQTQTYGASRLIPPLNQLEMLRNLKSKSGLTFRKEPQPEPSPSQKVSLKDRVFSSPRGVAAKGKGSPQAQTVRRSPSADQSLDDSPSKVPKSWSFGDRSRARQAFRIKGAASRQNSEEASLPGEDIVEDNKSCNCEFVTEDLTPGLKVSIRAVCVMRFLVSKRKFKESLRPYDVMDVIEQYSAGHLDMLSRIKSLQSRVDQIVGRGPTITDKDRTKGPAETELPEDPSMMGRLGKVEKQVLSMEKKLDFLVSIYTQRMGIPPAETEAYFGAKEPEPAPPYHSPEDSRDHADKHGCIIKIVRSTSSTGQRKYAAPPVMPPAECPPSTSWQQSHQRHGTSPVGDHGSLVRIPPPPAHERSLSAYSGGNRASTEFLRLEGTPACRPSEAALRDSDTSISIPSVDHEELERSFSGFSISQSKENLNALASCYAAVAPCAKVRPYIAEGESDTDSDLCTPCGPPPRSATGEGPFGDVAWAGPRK

Chain of Heat shock cognate 71 kDa protein (P11142 whole entry, the tested form may be a part): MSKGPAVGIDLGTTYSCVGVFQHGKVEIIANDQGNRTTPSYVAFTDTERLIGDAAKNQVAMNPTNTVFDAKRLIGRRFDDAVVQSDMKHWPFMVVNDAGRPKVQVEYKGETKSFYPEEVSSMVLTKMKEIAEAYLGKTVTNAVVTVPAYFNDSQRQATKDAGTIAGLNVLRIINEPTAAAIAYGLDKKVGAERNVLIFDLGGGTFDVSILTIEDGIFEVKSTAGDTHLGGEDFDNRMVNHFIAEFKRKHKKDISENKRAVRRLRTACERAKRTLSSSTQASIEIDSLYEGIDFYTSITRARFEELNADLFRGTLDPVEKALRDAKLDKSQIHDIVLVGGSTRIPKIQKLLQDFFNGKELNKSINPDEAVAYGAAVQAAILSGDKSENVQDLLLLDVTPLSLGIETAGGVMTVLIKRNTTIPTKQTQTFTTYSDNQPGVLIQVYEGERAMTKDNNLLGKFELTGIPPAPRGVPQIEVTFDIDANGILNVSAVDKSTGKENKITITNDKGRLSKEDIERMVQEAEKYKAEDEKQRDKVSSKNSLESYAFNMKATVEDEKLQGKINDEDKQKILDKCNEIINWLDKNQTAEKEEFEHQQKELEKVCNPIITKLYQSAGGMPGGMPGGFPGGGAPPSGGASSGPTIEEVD

O=C(O)C1Nc2c(C(F)(F)F)ccc(Cl)c2C2C=CCC12 (stereo not given)
IC50 [1]: > 100 µM (not active)
IC50 [2]: > 100 µM (not active)
EC50 [3]: 110 µM (active)
EC50 [4]: 61.5 µM (active)
IC50 [5]: > 100 µM (not active)

O=C(/C=C/Sc1nc[nH]n1)c1ccc(Cl)cc1
AC50 [6]: 31.2 µM (active)
AC50 [7]: 9.76 µM (active)
CC50 [8]: 25.4 µM (active)
IC50 (Galanin receptor type 2): 10.9 µM (not active)
EC50 [9]: 3.28 µM (active)
AC50 [10]: 14.4 µM (active)
EC50 [11]: 1.99 µM (active)
EC50 (BJ [12]): 6.44 µM (inconclusive)
CC50 (HeLa): > 3.67 µM (not active)
EC50 (BJ [13]): 4.19 µM (active)
EC50 [14]: 5.81 µM (active)
EC50 (BJ [15]): 12.3 µM (active)

O=C(Nc1cc(S(=O)(=O)Nc2ccc(Cl)cc2)ccc1N1CCCCC1)c1ccc(F)cc1
EC50 [16]: 29.4 µM (active)
EC50 [17]: 21 µM (active)
EC50 (Streptokinase A): 5.17 µM (active)
EC50 [18]: 10.2 µM (active)
AC50 (INS1): 8.05 µM (active)
EC50 (Streptococcus [19]): > 150 µM (not active)
AC50 [20]: 4.98 µM (active)
EC50 (Streptococcus [21]): 150 µM (active)

Cc1cc(C)c2c(=O)n(CC(=O)NCCCN3CCOCC3)sc2n1
IC50 [22]: 46 µM (active)
IC50 [23]: 21.2 µM (not active)
IC50 (Insulin-degrading enzyme): 7.16 µM (active)
IC50 [24]: 10.8 µM (active)

O=C(Nc1ccc(Br)nc1)c1cccc(F)c1
EC50 [25]: 1.65 µM (active)

Source: ChEMBL document CHEMBL1201862, “PubChem BioAssay data set” (2004)
